Measurements from patent publication US7223770B2, “Tocopherol-modified therapeutic drug compounds” (priority 2003, dated 2007).
Counter-ions that a name gives are not always drawn. Like-named read-outs stand apart in the source and are kept apart here. Marks after values point to notes of the source that are not given here.

Key:
[1] = tested on: NCI-H460 (non-small cell lung); settings: NCI-H460 (NSCLC); value reported by NCI; cited from earlier work
HCT-15 (colorectal) [2] = settings: HCT-15 (COLON); value reported by NCI; cited from earlier work
OVCAR-3 (ovarian) [3] = settings: value reported by NCI; cited from earlier work
HCT-116 (colorectal) [4] = settings: HCT-116 (COLON); value reported by NCI; cited from earlier work
HT-29 (colorectal) [5] = settings: HT29 (COLON); value reported by NCI; cited from earlier work
MCF-7 (breast) [6] = settings: value reported by NCI; cited from earlier work
[7] = rats, intravenous; literature value; cited from earlier work
HT-29 human tumor cells = test: HT-29 Human Tumor Xenograft anti-tumor activity; assay type: in vivo, Athymic mice; settings: for Number of animals with no measurable tumor on Day 55 / Tumor Growth Delay (T − C) / Tumor Growth Inhibition (% T/C) / Tumors that had still not reached maximum pre-determined size: 15 mg/kg intravenous; for Tumor Growth Inhibition (% T/C): at Day 55; for Median tumor size / Mice with no measurable tumor: fifty-five days after dose initiation
Description: HT-29 Human Tumor Xenograft. Athymic mice were subcutaneously implanted with 30–40 mg tumor fragments using 12-gauge trocar needles. A sufficient number of mice were implanted with fragments so tumors in narrow weight range (100–200 mg) were selected for the trial on staging day (SD). The animals selected with tumors in the proper size range were randomized into six groups of 10 animals and intravenously administered the following test compounds:
The tumor measurements were performed using a caliper (millimeters); the tumor volume was calculated based on the formula: (Length×width^2)/2=Volume (mm^3).

[8] = assay type: physicochemical; settings: for Solubility in TPGS / Solubility in Vitamin E USP/NF: 65 °C; for Solubility in Tween 80 NF: 65 → Room Temp.; for Solubility in Acetonitrile / Solubility in Captex 300 EP / Solubility in Chloroform / Solubility in DMSO / Solubility in Ethanol Denatured / Solubility in Glycerin USP/EP/BP/JP / Solubility in Methanol / Solubility in Methylene dichloride / Solubility in PEG-400 NF / Solubility in Propylene Glycol, USP / Solubility in Soybean Oil USP: Room Temp.
Description: Compounds were dissolved in each solvent under constant stirring and temperature to saturation. The resulting solutions were centrifuged and the supernatant was analyzed by high performance liquid chromatography (HPLC).

[9] = In vitro stability of the lactone form in presence of human serum albumin; assay type: in vitro ADME; settings: saline buffered solution 10 mM pH 7.4, 4% human serum albumin, 37° C.; tested as SN2300 / SN2310 emulsion; FIG. 12
Description: High performance liquid chromatography with fluorescence detection was used to analyze the decrease in the concentration of the lactone form over time.

HCT-116 (colorectal) [10] = test: In vitro cytotoxicity GI50, ALAMAR BLUE, 48 hours; assay type: cell-based; settings: HCT-116 (COLON), emulsion formulation diluted in cell media
Description: (§1) The cells were in contact with varying concentrations of the test article for a period of 48 hours. At the end of 48 hours, staining with ALAMAR BLUE was performed to determine the number of viable cells and calculate the degree of cellular growth inhibition as compared to a control group.

HCT-15 (colorectal) [11] = test: In vitro cytotoxicity GI50, ALAMAR BLUE, 48 hours; assay type: cell-based; settings: HCT-15 (COLON), emulsion formulation diluted in cell media
Description: as §1

MCF-7 (breast) [12] = test: In vitro cytotoxicity GI50, ALAMAR BLUE, 48 hours; assay type: cell-based; settings: emulsion formulation diluted in cell media
Description: as §1

OVCAR-3 (ovarian) [13] = test: In vitro cytotoxicity GI50, ALAMAR BLUE, 48 hours; assay type: cell-based; settings: emulsion formulation diluted in cell media
Description: as §1

HT-29 (colorectal) [14] = test: In vitro cytotoxicity GI50, ALAMAR BLUE, 48 hours; assay type: cell-based, human; settings: HT29 (COLON), emulsion formulation diluted in cell media
Description: as §1

[15] = tested on: NCI-H460 (non-small cell lung); test: In vitro cytotoxicity GI50, ALAMAR BLUE, 48 hours; assay type: cell-based, human; settings: NCI-H460 (NSCLC), emulsion formulation diluted in cell media
Description: as §1

[16] = Pharmacokinetics following intravenous administration in rats; assay type: in vivo, Sprague-Dawley rats; settings: for Clearance / MRT / t1/2 (elimination): Sprague-Dawley rats, bolus intravenous, emulsion, approximately 14 mg/kg, plasma; for Plasma elimination half-life, times longer than the commercially available analogs: rats, intravenous
Description: Blood samples were collected for up to 120 hours post dose via the jugular vein. […] A noncompartmental analysis was carried out using WinNonlin (v 4.1).
The term “elimination rate constant” refers to the fraction of drug eliminated per unit of time. With first-order elimination, the rate of elimination is directly proportional to the serum drug concentration. There is a linear relationship between rate of elimination and serum drug concentration. Although the amount of drug eliminated in a first-order process changes with concentration, the fraction of a drug eliminated remains constant.
The term “clearance” refers to a measure of the body's ability to eliminate drug and is a hypothetical volume of distribution of drug which is cleared per unit time (i.e., mL/min) by any pathway of drug removal. […] The term “volume of distribution” refers to a calculated volume of body fluid that would be required to dissolve the total amount of drug at the same concentration as that found in the blood. It is a proportionality constant relating the amount of drug in the body to the measured concentration in biological fluid (blood, plasma, serum).

SMILES: CC[C@@]1(O)C(=O)OCc2c1cc1n(c2=O)Cc2cc3ccccc3nc2-1 [Camptothecin]
- GI50 [1]: 0.016 µM
- GI50 (HCT-15 (colorectal) [2]): 0.16 µM
- GI50 (OVCAR-3 (ovarian) [3]): 0.16 µM
- GI50 (HCT-116 (colorectal) [4]): 0.04 µM
- GI50 (HT-29 (colorectal) [5]): 0.126 µM
- GI50 (MCF-7 (breast) [6]): 0.013 µM
- Clearance [7]: 8.81 L/h/kg
- t1/2 (elimination) [7]: 1.7 h

SMILES: CC[C@@]1(O)C(=O)OCc2c1cc1n(c2=O)Cc2cc3cc(O)ccc3nc2-1 [Example 10-HO-CPT, 10-hydroxycamptothecin]
- GI50 [1]: 0.011 µM
- GI50 (HCT-15 (colorectal) [2]): 0.356 µM
- GI50 (OVCAR-3 (ovarian) [3]): 0.062 µM
- GI50 (HCT-116 (colorectal) [4]): 0.027 µM
- GI50 (HT-29 (colorectal) [5]): 0.112 µM
- GI50 (MCF-7 (breast) [6]): 0.01 µM

SMILES: CCc1c2c(nc3ccc(OC(=O)N4CCC(N5CCCCC5)CC4)cc13)-c1cc3c(c(=O)n1C2)COC(=O)[C@]3(O)CC [Irinotecan, irinotecan hydrochloride]
- Number of animals with no measurable tumor on Day 55 (HT-29 human tumor cells; q1dx5 (2 weeks)): 0/10
- Tumor Growth Delay (T − C) (HT-29 human tumor cells; q1dx5 (2 weeks)): 14 days
- Tumor Growth Inhibition (% T/C) (HT-29 human tumor cells; q1dx5 (2 weeks)): 52 % T/C
- Median tumor size (HT-29 human tumor cells; q1dx5): 1637 mm^3
- GI50 [1]: 5.01 µM
- GI50 (HCT-116 (colorectal) [4]): 7.9 µM
- GI50 (HT-29 (colorectal) [5]): 12.6 µM
- GI50 (MCF-7 (breast) [6]): 3.98 µM
- MRT [7]: 1.43 h

SMILES: CCc1c2c(nc3ccc(O)cc13)-c1cc3c(c(=O)n1C2)COC(=O)[C@]3(O)CC [SN38, 7-ethyl-10-hydroxycamptothecin]
- GI50 [1]: 0.0014 µM
- GI50 (HCT-15 (colorectal) [2]): 0.0079 µM
- GI50 (OVCAR-3 (ovarian) [3]): 0.0029 µM
- GI50 (HCT-116 (colorectal) [4]): 0.021 µM
- GI50 (HT-29 (colorectal) [5]): 0.001 µM

SMILES: CC[C@@]1(OC(=O)CCC(=O)Oc2c(C)c(C)c3c(c2C)CC[C@@](C)(CCC[C@H](C)CCC[C@H](C)CCCC(C)C)O3)C(=O)OCc2c1cc1n(c2=O)Cc2cc3ccccc3nc2-1 [SN2300]
- Solubility in TPGS [8]: >133.3 mg/g
- Solubility in Vitamin E USP/NF [8]: >288.3 mg/g
- Solubility in Tween 80 NF [8]: 48.3 mg/g
- Solubility in Acetonitrile [8]: 49.6 mg/g
- Solubility in Captex 300 EP [8]: 96.7 mg/g
- Solubility in Chloroform [8]: >372.5 mg/g
- Solubility in DMSO [8]: >255.5 mg/g
- Solubility in Ethanol Denatured [8]: 57.1 mg/g
- Solubility in Glycerin USP/EP/BP/JP [8]: 2.541 mg/g
- Solubility in Methanol [8]: 14.4 mg/g
- Solubility in Methylene dichloride [8]: >336.5 mg/g
- Solubility in PEG-400 NF [8]: 17.5 mg/g
- Solubility in Propylene Glycol, USP [8]: 0.4633 mg/g
- Solubility in Soybean Oil USP [8]: 45.2 mg/g
- Stability of the lactone form over time [9]: greater than that of camptothecin
- GI50 (HCT-116 (colorectal) [10]): 0.449 µM
- GI50 (HCT-15 (colorectal) [11]): 20 µM
- GI50 (MCF-7 (breast) [12]): 0.325 µM
- GI50 column, result in words (Poor activity) (OVCAR-3 (ovarian) [13]): Poor
- GI50 (HT-29 (colorectal) [14]): 0.434 µM
- GI50 [15]: 0.043 µM
- Clearance [16]: 0.0081 L/h/kg
- MRT [16]: 9.40 h
- t1/2 (elimination) [16]: 29.08 h
- Plasma elimination half-life, times longer than the commercially available analogs [16]: approximately 30 times
- Number of animals with no measurable tumor on Day 55 (HT-29 human tumor cells; q1dx5 (2 weeks)): 0/10
- Tumor Growth Delay (T − C) (HT-29 human tumor cells; q1dx5 (2 weeks)): 8.5 days
- Tumor Growth Inhibition (% T/C) (HT-29 human tumor cells; q1dx5 (2 weeks)): 79 % T/C
- Number of animals with no measurable tumor on Day 55 (HT-29 human tumor cells; q3dx10): 0/10
- Tumor Growth Delay (T − C) (HT-29 human tumor cells; q3dx10): 0 days
- Tumor Growth Inhibition (% T/C) (HT-29 human tumor cells; q3dx10): 102 % T/C

SMILES: CCc1c2c(nc3ccc(OC(=O)CCC(=O)Oc4c(C)c(C)c5c(c4C)CC[C@@](C)(CCC[C@H](C)CCC[C@H](C)CCCC(C)C)O5)cc13)-c1cc3c(c(=O)n1C2)COC(=O)[C@]3(O)CC [SN2310]
- Solubility in TPGS [8]: 27.6 mg/g
- Solubility in Vitamin E USP/NF [8]: 398.2 mg/g
- Solubility in Tween 80 NF [8]: 2.7 mg/g
- Solubility in Acetonitrile [8]: 3.1 mg/g
- Solubility in Captex 300 EP [8]: 4.4 mg/g
- Solubility in Chloroform [8]: >97.0 mg/g
- Solubility in DMSO [8]: 30.5 mg/g
- Solubility in Ethanol Denatured [8]: 4.2 mg/g
- Solubility in Glycerin USP/EP/BP/JP [8]: 2.8 mg/g
- Solubility in Methanol [8]: 3.8 mg/g
- Solubility in Methylene dichloride [8]: >99.7 mg/g
- Solubility in PEG-400 NF [8]: 0.017 mg/g
- Solubility in Propylene Glycol, USP [8]: 3.2 mg/g
- Solubility in Soybean Oil USP [8]: 3.3 mg/g
- Stability of the lactone form over time [9]: greater than that of camptothecin
- GI50 (HCT-116 (colorectal) [10]): 0.119 µM
- GI50 (HCT-15 (colorectal) [11]): 0.099 µM
- GI50 (OVCAR-3 (ovarian) [13]): 0.083 µM
- GI50 (HT-29 (colorectal) [14]): 0.091 µM
- GI50 [15]: 0.004 µM
- Clearance [16]: 0.0067 L/h/kg
- MRT [16]: 5.15 h
- t1/2 (elimination) [16]: 3.49 h
- Plasma elimination half-life, times longer than the commercially available analogs [16]: ~3 times
- Number of animals with no measurable tumor on Day 55 (HT-29 human tumor cells; q1dx5 (2 weeks)): 4/10
- Tumor Growth Delay (T − C) (HT-29 human tumor cells; q1dx5 (2 weeks)): >28* days
- Tumors that had still not reached maximum pre-determined size (HT-29 human tumor cells; q1dx5 (2 weeks)): *90% of tumors in this group had still not reached maximum pre-determined size.
- Tumor Growth Inhibition (% T/C) (HT-29 human tumor cells; q1dx5 (2 weeks)): 4 % T/C
- Number of animals with no measurable tumor on Day 55 (HT-29 human tumor cells; q3dx10): 8/10
- Tumor Growth Delay (T − C) (HT-29 human tumor cells; q3dx10): >28* days
- Tumors that had still not reached maximum pre-determined size (HT-29 human tumor cells; q3dx10): *90% of tumors in this group had still not reached maximum pre-determined size.
- Tumor Growth Inhibition (% T/C) (HT-29 human tumor cells; q3dx10): 2 % T/C
- Median tumor size (HT-29 human tumor cells; q1dx5): 126 mm^3
- Mice with no measurable tumor (HT-29 human tumor cells; q1dx5): 40%
- Mice with no measurable tumor (HT-29 human tumor cells; q3dx10): 80%

SMILES: CC[C@@]1(O)C(=O)OCc2c1cc1n(c2=O)Cc2cc3c(CN(C)C)c(O)ccc3nc2-1 [Topotecan, topotecan hydrochloride]
- GI50 [1]: 0.0199 µM
- GI50 (HCT-15 (colorectal) [2]): 0.501 µM
- GI50 (OVCAR-3 (ovarian) [3]): 0.251 µM
- GI50 (HCT-116 (colorectal) [4]): 0.0398 µM
- GI50 (HT-29 (colorectal) [5]): 0.125 µM
- GI50 (MCF-7 (breast) [6]): 0.0158 µM
- Clearance [7]: 3.22 L/h/kg
- t1/2 (elimination) [7]: 1.06 h
